Data on six compounds can be found in patent US6630462B2, “Delta agonist analgesics” (Adolor Corporation, priority 2000, dated 2003).

Read-outs that look alike come from different tables or passages of the source.

The target in data set [1] is cloned human μ opioid receptor (Homo sapiens, UniProt P35372). As to the kind of experiment: Opioid receptor binding assay, [3H]diprenorphine, CHO cell membranes. Particulars: for inhibition at 10 µM: read-out: % Inhibition @ 10 μM, μ. As to the method:
(§1) Chinese hamster ovary (CHO) cells are stably transfected with the cloned human μ, κ, or δ opioid receptors. Cells are harvested by scraping them from the culture flask, centrifuging them at 1000×g for 10 min, resuspending them in buffer A and centrifuging again to remove growth medium. The cells are resuspended again in buffer A and homogenized for 30 seconds using a Polytron homogenizer (Brinkmann) at setting 8. The homogenate is centrifuged at 48,000×g for 10 min at 4° C. The pellets are resuspended at 1 mg of protein per mL of buffer A and aliquots stored at −80° C. until use. Buffer A is 50 mM Tris HCl, pH 7.8, containing 1.0 mM EGTA, 5 mM MgC12, 10 mg/mL leupeptin, 10 mg/mL pepstatin A, 200 mg/mL bacitracin, and 0.5 mg/mL aprotinin.
(§2) Receptor binding assays contain 0.4-1.0 nM [3H]diprenorphine (˜40,000 dpm), test compound as appropriate, and membrane preparation in a total volume of 0.5 mL buffer A. After incubation at room temperature for one hour, the samples are filtered through Whatman GF/B filters that have been presoaked in a solution of 0.5% (w/v) polyethylenimine and 0.1% (w/v) bovine serum albumin in water. The filters are rinsed 4×1 mL with cold 50 mM Tris HCl, pH 7.8 and radioactivity remaining on the filters is determined by scintillation spectroscopy. Ki values are determined by Cheng-Prusoff corrections of IC50 values derived from nonlinear regression fits of 12 point titration curves using the program Prism© (GraphPad Software, San Diego, Calif.).

Data set [2] addresses cloned human κ opioid receptor (Homo sapiens, UniProt P41145). Described as above. The following applies: for inhibition at 10 µM: [3H]diprenorphine binding. As to the method: as §1, §2
Data set [3] addresses cloned human δ opioid receptor (Homo sapiens, UniProt P41143). Described as above. The following applies: for Ki: cloned human δ receptor in CHO membranes, read-out: Ki, inhibition of [3H]diprenorphine binding, δ. As to the method: as §1
The filters are rinsed 4×1 mL with cold 50 mM Tris HCl, pH 7.8 and radioactivity remaining on the filters is determined by scintillation spectroscopy. Ki values are determined by Cheng-Prusoff corrections of IC50 values derived from nonlinear regression fits of 12 point titration curves using the program Prism© (GraphPad Software, San Diego, Calif.).

Another data set concerns seizures in mice. As to the kind of experiment: Drug-induced seizures. The format is in vivo. The following applies: for induction of seizures: s.c., doses up to 30 mg/kg, observed 30 min. As to the method:
Mice are injected s.c. with either vehicle (1:1:8, DMSO: Cremophor: Saline), clozapine (3-30 mg/kg), or DMCLZ (3-30 mg/kg). Immediately after injection, the mice are placed in individual plastic cages (30×16×12 cm) lined with bedding. The mice are observed for gross behavioral signs for 30 min, and the presence or absence of seizures is noted.
To determine the role of δ opioid receptors in mediating clozapine-induced seizures, mice are pretreated with either saline or the selective δ antagonist naltrindole (NTI) (1 mg/kg, s.c.) 20 min prior to treatment with vehicle or 30 mg/kg of clozapine.

For a further data set, the target named is human δ opioid receptor (Homo sapiens, UniProt P41143). As to the kind of experiment: Opioid receptor-mediated stimulation of [35S]GTPγS binding. The format is biochemical. The procedure:
Chinese hamster ovary (CHO) cells are stably transfected with the cloned human μ, κ, or δ opioid receptors. Cells are harvested by scraping them from the culture flask, centrifuging them at 1000×g for 10 min, resuspending them in buffer A and centrifuging again to remove growth medium. The cells are resuspended again in buffer A and homogenized for 30 seconds using a Polytron homogenizer (Brinkmann) at setting 8. The homogenate is centrifuged at 48,000×g for 10 min at 4° C. The pellets are resuspended at 1 mg of protein per mL of buffer A and aliquots stored at −80° C. until use. […]
Assays contain 80-100 pM [35S]GTPγS, […], 75 mM NaCl, 15 mM MgCl2, 1.0 mM EGTA, 2.1 mM dithiothreitol, 10 mg/mL leupeptin, 10 mg/mL pepstatin A, 200 mg/mL bacitracin, 0.5 mg/mL aprotinin, […] of membrane protein and agonist as appropriate in a final total volume of […] of 50 mM Tris HCl, pH 7.8 in 96 well Basic Flashplates® (NEN). After incubation for one hour at room temperature, the samples are centrifuged at 800×g at 4° C. for 5 min and the radioactivity (cpm) bound to the membranes is determined by scintillation spectrometry.
To determine the IC50 value, which is the concentration to give half-maximal inhibition of agonist-stimulated [35S]GTPγS binding, the cpm of [35S]GTPγS bound in the presence of a fixed concentration of agonist and various concentrations of antagonist is measured. […]

The subject of data set [4] is formalin-induced flinching, late phase. Kind of data set: Formalin-induced flinching. The data set is classed as in vivo, Sprague-Dawley rats. Particulars: rat, 300 μg i.paw, late phase 20-35 min after formalin. As to the method:
Male Sprague-Dawley rats weighing 80-120 g are injected s.c. with […] of a 5% formalin solution into the dorsal surface of the right hind paw (i.paw). The flinching behavior is quantified by counting the number of responses that occur during the tonic (late) phase of pain, lasting from 20-35 min after formalin injection. The test compounds are injected i.paw 10 min prior to the formalin injection. The mean percent antagonism (%A) of formalin-induced flinching for drug treated, formalin injected rats is calculated according to the following formula: %A=(Mean formalin response−Mean saline response)−Individual response×100/Mean formalin response−Mean saline response The mean formalin response is the mean number of flinches in rats treated with vehicle prior to the formalin injection. The mean saline response is the mean number of flinches in rats treated with […] saline instead of formalin.

The conditions of data set [5]: human patients; cited from earlier work.
Data set [6] concerns acetic acid-induced writhing. As to the kind of experiment: Acetic acid-induced writhing. The data set is classed as in vivo, ICR mice. Particulars: sc; mouse, s.c., 15 min before acetic acid. As to the method: Male ICR mice weighing 20-25 g are injected s.c. with either vehicle or test compound 15 min before they are injected intraperitoneally with 0.6% acetic acid. At 5 min after treatment with acetic acid, the number of writhes is counted for 10 min. Dose response curves are expressed as the percent inhibition of acetic acid induced writhing, when compared to the mean number of writhes observed in vehicle-treated mice.
The mean percent inhibition (%I) of acetic acid-induced writhing for drug-treated rats is calculated according to the following formula: [formula]
The mean individual response is the mean number of writhes in rats treated with test compound. The mean vehicle response is the mean number of writhes in rats treated with vehicle.

The mark [7] stands for this setting: 10 μM, [3H]diprenorphine binding.

cloned human δ opioid receptor, sequence (P41143 whole entry): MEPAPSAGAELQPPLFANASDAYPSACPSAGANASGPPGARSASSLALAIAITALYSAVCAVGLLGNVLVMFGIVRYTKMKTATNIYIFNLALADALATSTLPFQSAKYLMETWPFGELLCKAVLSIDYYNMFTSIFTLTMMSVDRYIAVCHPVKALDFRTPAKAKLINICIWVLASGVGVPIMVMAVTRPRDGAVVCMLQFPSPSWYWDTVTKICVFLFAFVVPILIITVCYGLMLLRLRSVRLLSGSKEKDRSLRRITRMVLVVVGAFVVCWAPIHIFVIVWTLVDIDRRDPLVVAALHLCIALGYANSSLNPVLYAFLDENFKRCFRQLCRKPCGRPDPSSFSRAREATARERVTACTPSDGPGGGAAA
cloned human κ opioid receptor, sequence (P41145 whole entry): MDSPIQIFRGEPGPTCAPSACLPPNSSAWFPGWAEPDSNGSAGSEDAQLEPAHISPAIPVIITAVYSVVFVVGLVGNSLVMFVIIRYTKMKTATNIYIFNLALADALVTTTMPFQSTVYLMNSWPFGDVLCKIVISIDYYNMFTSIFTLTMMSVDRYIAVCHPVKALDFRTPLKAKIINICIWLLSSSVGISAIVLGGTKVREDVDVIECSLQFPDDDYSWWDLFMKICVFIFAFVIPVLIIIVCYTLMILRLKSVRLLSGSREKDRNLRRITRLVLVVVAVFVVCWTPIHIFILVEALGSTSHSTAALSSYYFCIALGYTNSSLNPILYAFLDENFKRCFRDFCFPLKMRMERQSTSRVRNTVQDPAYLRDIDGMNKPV
cloned human μ opioid receptor, sequence (P35372 whole entry): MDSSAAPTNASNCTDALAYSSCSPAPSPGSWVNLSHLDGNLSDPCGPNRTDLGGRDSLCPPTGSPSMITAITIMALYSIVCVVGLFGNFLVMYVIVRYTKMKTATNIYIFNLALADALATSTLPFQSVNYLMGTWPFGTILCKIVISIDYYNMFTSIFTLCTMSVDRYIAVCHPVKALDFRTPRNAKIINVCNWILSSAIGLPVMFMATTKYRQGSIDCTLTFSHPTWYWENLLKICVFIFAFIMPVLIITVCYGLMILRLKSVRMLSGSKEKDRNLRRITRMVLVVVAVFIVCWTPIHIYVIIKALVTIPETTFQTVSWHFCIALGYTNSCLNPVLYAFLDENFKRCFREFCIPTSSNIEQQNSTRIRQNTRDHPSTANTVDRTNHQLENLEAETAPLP
human δ opioid receptor, sequence (P41143 whole entry): as the sequence (P41143 whole entry) above

On to `CN1CCN(C2=Nc3cc(Cl)ccc3Nc3ccccc32)CC1` [Clozapine, 8-chloro-11-(4-methyl-1-piperazinyl)-5H-dibenzo[b,e][1,4]-diazepine], for which the inhibition at 10 µM in data set [1] (setting [7]) turned out to be 17%; in data set [2], 11%. For the same compound, in data set [3], the Ki came out at 928 nM. In the data set on seizures in mice (naltrindole 1 mg/kg s.c. 20 min before 30 mg/kg clozapine), the “blockade of clozapine-induced seizures by the selective δ antagonist naltrindole” value was “not blocked”.
Turning to `CN1CCN(C2=Nc3ccccc3Oc3ccc(Cl)cc32)CC1` [Loxapine], the inhibition at 10 µM in data set [1] (setting [7]) was 0%; in data set [2] it was 27%; in data set [3] (setting [7]), 26%.
Take `Clc1ccc2c(c1)N=C(N1CCNCC1)c1ccccc1N2` [N-desmethylclozapine]: the inhibition at 10 µM in data set [1] (setting [7]) turned out to be 17%; in data set [2], 64%. For the same compound, the Ki in data set [3] was 24 nM. The EC50 on human δ opioid receptor worked out at 290 nM. Also, the “agonist character at the human δ opioid receptor” value at human δ opioid receptor (FIG. 3) was “full agonist”. Also, the “percent antagonism (% A) of formalin-induced flinching” value in data set [4] was 56 % A. Further, the values for the induction of seizures result with seizures in mice and in the data set with seizures in mice (listed as DMCLZ) were “does not induce seizures” and “does not produce seizures”, respectively. Also, in data set [5], the plasma level is roughly 620 nM. The compound further registered a 50% effective dose (ED50) in data set [6] of 2.2 mg/kg.
With `C=CCN1C[C@H](C)N([C@H](c2ccc(C(=O)N(CC)CC)cc2)c2cccc(OC)c2)C[C@H]1C` [SNC-80], in data set [1], the inhibition at 10 µM is 5.5%. The inhibition at 1 µM in data set [2] (read-out: % Inhibition @ 1.0 μM, κ) worked out at 2%.
As for `C=CCN1C[C@H](C)N([C@H](c2ccc(C(=O)N(CC)CC)cc2)c2cccc(O)c2)C[C@H]1C` [BW373U86], the Ki in data set [1] (cloned human μ receptor in CHO membranes, read-out: Ki, inhibition of [3H]diprenorphine binding, μ) came to 96 nM; in data set [2] (cloned human κ receptor in CHO membranes, read-out: Ki, inhibition of [3H]diprenorphine binding, κ) it was 149 nM.
In the case of `Clc1ccc2c(c1)C(N1CCNCC1)=Nc1ccccc1O2` [Amoxapine], the inhibition at 10 µM in data set [1] (setting [7]) stood at 18%; in data set [2], 25%.
